Data: ChEMBL document CHEMBL5715949, “Discovery of a selective irreversible BMX inhibitor for prostate cancer” (ACS Chem Biol, 2013)
Active and inactive are the calls of the source. The rule behind the calls is not given here.

What was measured:
[1] = biological target: Serine/threonine-protein kinase Nek2 (Homo sapiens) (UniProt P51955); assay: Inhibition of NEK2 (unknown origin) assessed as remaining activity at 1 uM by Kinome scan method relative to control
RV-1 [2] = assay: Antiproliferative activity against human RV-1 cells assessed as reduction in cell viability at 500 to 2500 nM incubated for 5 days in presence of Torin2 by CellTiter-Glo assay; type: functional, cell-based; conditions: dose 500-2500 nM, time 5.0 day
RV-1 [3] = assay: Down regulation of BMX protein expression in human RV-1 cells expressing BMX C496S mutant at 5 uM incubated for 72 hrs by western blot analysis; type: functional, cell-based
[4] = biological target: Serine/threonine-protein kinase SBK1 (Homo sapiens) (UniProt Q52WX2); assay: Inhibition of SBK1 (unknown origin) assessed as remaining activity at 1 uM by Kinome scan method relative to control
[5] = biological target: Serine/threonine-protein kinase pim-3 (Homo sapiens) (UniProt Q86V86); assay: Inhibition of PIM3 (unknown origin) assessed as remaining activity at 1 uM by Kinome scan method relative to control
[6] = test system: Tyrosine-protein kinase ABL1 (Homo sapiens), P00519 [E255K]; assay: Inhibition of phosphorylated ABL1 E255K mutant (unknown origin) assessed as remaining activity at 1 uM by Kinome scan method relative to control
[7] = biological target: Serine/threonine-protein kinase D2 (Homo sapiens) (UniProt Q9BZL6); assay: Inhibition of PRKD2 (unknown origin) assessed as remaining activity at 1 uM by Kinome scan method relative to control
Chain of Serine/threonine-protein kinase D2 (Homo sapiens) (Q9BZL6 whole entry): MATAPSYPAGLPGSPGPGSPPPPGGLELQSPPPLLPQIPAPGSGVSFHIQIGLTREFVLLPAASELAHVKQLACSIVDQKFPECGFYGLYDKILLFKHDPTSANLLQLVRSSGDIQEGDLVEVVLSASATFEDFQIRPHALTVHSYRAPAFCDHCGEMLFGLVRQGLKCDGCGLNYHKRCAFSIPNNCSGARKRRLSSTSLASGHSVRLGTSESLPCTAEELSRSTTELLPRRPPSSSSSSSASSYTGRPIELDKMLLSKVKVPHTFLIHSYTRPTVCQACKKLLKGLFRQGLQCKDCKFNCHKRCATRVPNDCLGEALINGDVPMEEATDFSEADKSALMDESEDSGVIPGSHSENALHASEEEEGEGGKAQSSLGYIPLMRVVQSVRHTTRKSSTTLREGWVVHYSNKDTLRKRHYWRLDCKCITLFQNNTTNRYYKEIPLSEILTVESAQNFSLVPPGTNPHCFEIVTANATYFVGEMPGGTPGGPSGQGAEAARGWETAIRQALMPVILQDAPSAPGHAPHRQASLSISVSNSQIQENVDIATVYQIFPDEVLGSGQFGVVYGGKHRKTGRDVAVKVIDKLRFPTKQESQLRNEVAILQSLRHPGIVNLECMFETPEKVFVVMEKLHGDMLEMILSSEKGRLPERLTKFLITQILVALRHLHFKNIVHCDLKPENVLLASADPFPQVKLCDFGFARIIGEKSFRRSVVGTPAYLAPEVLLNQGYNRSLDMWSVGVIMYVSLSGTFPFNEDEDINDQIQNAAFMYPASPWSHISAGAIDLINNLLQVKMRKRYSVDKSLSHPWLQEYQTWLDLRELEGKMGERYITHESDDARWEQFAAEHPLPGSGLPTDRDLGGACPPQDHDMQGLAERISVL

[8] = biological target: Serine/threonine-protein kinase mTOR (Homo sapiens) (UniProt P42345); assay: Inhibition of MTOR (unknown origin) assessed as remaining activity at 1 uM by Kinome scan method relative to control
[9] = biological target: Tyrosine-protein kinase ZAP-70 (Homo sapiens) (UniProt P43403); assay: Inhibition of ZAP70 (unknown origin) assessed as remaining activity at 1 uM by Kinome scan method relative to control
[10] = Down regulation of BMX protein expression in human RV-1 cells expressing wild type BMX assessed protein expression level at 2.5 uM pre incubated for 4 hrs followed by compound wash out and additon of CHX and measured after 16 hrs by immunoblot analysis (reference value: 0.98 to 1.01); type: functional
[11] = biological target: TRAF2 and NCK-interacting protein kinase (Homo sapiens) (UniProt Q9UKE5); assay: Inhibition of TNIK (unknown origin) assessed as remaining activity at 1 uM by Kinome scan method relative to control
[12] = biological target: cAMP-dependent protein kinase catalytic subunit alpha (Homo sapiens) (UniProt P17612); assay: Inhibition of PKAC-alpha (unknown origin) assessed as remaining activity at 1 uM by Kinome scan method relative to control
[13] = biological target: Membrane-associated tyrosine- and threonine-specific cdc2-inhibitory kinase (Homo sapiens) (UniProt Q99640); assay: Inhibition of PKMYT1 (unknown origin) assessed as remaining activity at 1 uM by Kinome scan method relative to control
Chain of Membrane-associated tyrosine- and threonine-specific cdc2-inhibitory kinase (Homo sapiens) (Q99640 whole entry): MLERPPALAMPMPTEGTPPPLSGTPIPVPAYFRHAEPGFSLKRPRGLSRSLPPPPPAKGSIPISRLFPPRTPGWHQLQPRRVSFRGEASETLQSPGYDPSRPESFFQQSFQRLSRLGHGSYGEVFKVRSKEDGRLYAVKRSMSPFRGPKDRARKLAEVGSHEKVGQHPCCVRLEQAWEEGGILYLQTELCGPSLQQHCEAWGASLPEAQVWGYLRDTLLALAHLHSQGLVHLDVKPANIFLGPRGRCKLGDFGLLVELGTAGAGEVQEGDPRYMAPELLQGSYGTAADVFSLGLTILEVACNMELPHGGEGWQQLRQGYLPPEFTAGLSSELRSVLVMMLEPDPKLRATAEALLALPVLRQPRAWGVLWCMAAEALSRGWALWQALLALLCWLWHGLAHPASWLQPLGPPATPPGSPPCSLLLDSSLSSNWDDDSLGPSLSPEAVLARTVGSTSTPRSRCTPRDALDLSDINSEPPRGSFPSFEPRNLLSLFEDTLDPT

[14] = biological target: Mitogen-activated protein kinase 4 (Homo sapiens) (UniProt P31152); assay: Inhibition of ERK4 (unknown origin) assessed as remaining activity at 1 uM by Kinome scan method relative to control
LNCaP C4-2 = assay: Antiproliferative activity against human C4-2 cells assessed growth inhibition incubated for 2 to 5 days by CellTiter-Glo assay; type: functional; conditions: time 2-5 day
[15] = biological target: Mitogen-activated protein kinase 12 (Homo sapiens) (UniProt P53778); assay: Inhibition of P38gamma (unknown origin) assessed as remaining activity at 1 uM by Kinome scan method relative to control
Chain of Mitogen-activated protein kinase 12 (Homo sapiens) (P53778 whole entry): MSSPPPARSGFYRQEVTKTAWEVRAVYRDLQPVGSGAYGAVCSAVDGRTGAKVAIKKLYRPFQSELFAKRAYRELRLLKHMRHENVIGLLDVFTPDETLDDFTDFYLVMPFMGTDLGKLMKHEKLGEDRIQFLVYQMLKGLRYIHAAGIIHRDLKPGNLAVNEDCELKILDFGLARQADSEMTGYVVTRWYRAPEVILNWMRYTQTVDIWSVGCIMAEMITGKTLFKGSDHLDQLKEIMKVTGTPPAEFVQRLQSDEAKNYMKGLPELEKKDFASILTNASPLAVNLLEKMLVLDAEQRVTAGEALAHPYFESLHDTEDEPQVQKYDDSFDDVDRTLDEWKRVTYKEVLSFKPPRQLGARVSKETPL

[16] = biological target: Serine/threonine-protein kinase PknB (Mycobacterium tuberculosis) (UniProt P9WI81); assay: Inhibition of Mycobacterium tuberculosis PknB assessed as remaining activity at 1 uM by Kinome scan method relative to control
[17] = biological target: Rho-associated protein kinase 2 (Homo sapiens) (UniProt O75116); assay: Inhibition of ROCK2 (unknown origin) assessed as remaining activity at 1 uM by Kinome scan method relative to control
[18] = Induction of cell cycle arrest in human RV-1 cells assessed as accumulation of cells at S phase at 2.5 uM incubated for 5 days in presence of MK2206 by propidium iodide staining based flow cytometric analysis (reference value: 28.9 %); type: functional; conditions: time 5 day
[19] = biological target: Tyrosine-protein kinase Lyn (Homo sapiens) (UniProt P07948); assay: Inhibition of LYN (unknown origin) assessed as remaining activity at 1 uM by Kinome scan method relative to control
[20] = biological target: Ephrin type-A receptor 1 (Homo sapiens) (UniProt P21709); assay: Inhibition of EPHA1 (unknown origin) assessed as remaining activity at 1 uM by Kinome scan method relative to control
Chain of Ephrin type-A receptor 1 (Homo sapiens) (P21709 whole entry, the tested form may be a part): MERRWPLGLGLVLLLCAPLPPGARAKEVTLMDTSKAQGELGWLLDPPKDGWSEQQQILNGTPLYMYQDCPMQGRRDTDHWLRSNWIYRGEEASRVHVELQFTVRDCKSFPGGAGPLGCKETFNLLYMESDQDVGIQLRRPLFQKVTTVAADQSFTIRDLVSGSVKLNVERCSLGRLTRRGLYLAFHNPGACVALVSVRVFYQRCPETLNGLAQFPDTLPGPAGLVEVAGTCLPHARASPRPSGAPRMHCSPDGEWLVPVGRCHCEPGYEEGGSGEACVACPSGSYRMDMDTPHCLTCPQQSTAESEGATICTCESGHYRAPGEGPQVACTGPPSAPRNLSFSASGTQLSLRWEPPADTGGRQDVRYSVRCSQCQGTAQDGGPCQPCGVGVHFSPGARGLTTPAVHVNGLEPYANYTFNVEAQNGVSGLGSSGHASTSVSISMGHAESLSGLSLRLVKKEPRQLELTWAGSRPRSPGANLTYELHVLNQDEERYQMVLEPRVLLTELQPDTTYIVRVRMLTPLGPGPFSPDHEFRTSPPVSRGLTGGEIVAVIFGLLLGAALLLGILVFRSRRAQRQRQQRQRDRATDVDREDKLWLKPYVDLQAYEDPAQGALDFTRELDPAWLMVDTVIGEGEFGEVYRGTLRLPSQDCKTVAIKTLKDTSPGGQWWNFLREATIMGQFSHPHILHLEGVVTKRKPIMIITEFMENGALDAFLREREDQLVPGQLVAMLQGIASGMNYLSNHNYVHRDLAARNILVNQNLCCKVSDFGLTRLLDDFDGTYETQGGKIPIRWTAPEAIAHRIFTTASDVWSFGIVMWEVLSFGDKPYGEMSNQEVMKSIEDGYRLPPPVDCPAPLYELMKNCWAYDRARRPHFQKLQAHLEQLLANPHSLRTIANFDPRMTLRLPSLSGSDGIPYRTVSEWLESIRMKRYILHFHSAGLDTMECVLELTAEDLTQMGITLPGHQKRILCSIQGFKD

BaF3 = assay: Antiproliferative activity against mouse BaF3 cells expressing TEL-fused JAK1 assessed growth inhibition incubated for 2 to 5 days by CellTiter-Glo assay; type: functional; conditions: time 2-5 day
[21] = test system: Fibroblast growth factor receptor 3 (Homo sapiens), P22607 [G697C]; assay: Inhibition of FGFR3 G697C mutant (unknown origin) assessed as remaining activity at 1 uM by Kinome scan method relative to control
[22] = Inhibition of PI3K/AKT/mTOR signalling pathway in human RV-1 cells assessed as decrease in S6K phosphorylation at T389 residue at 2.5 uM incubated for 5 days by immunoblot analysis; type: cell-based; conditions: time 5.0 day
[23] = biological target: Mitogen-activated protein kinase kinase kinase 15 (Homo sapiens) (UniProt Q6ZN16); assay: Inhibition of MAP3K15 (unknown origin) assessed as remaining activity at 1 uM by Kinome scan method relative to control
[24] = biological target: Ephrin type-B receptor 3 (Homo sapiens) (UniProt P54753); assay: Inhibition of EPHB3 (unknown origin) assessed as remaining activity at 1 uM by Kinome scan method relative to control
Chain of Ephrin type-B receptor 3 (Homo sapiens) (P54753 whole entry): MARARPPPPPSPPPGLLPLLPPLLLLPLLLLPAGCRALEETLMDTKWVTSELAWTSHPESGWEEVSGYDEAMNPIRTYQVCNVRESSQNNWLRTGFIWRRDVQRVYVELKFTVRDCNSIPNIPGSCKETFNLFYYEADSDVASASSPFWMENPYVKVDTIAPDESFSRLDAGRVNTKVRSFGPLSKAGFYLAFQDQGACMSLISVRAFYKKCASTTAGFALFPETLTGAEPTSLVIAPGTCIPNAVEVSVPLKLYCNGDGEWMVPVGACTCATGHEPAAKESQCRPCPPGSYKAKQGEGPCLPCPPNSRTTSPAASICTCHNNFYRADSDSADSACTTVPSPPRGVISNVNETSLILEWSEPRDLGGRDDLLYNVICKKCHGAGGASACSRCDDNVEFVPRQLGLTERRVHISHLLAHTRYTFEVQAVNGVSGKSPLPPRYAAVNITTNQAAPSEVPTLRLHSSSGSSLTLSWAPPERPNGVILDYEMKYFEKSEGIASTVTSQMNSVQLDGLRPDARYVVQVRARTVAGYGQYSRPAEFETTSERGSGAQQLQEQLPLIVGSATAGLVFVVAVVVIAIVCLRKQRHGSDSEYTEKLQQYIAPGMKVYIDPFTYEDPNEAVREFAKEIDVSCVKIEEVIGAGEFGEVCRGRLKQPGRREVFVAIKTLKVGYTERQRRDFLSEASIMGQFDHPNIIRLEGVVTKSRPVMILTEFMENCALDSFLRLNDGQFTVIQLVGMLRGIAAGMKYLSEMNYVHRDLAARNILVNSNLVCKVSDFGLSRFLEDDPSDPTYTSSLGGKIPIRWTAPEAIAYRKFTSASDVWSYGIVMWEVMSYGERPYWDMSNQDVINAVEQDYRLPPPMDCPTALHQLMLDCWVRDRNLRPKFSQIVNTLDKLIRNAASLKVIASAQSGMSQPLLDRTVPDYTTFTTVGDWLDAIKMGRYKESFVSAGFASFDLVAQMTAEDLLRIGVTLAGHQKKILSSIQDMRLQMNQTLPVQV

[25] = Inhibition of PI3K/AKT/mTOR signalling pathway in human RV-1 cells assessed as decrease in FOXO3A phosphorylation at S253 residue at 2.5 uM incubated for 4 hrs by immunoblot analysis; type: cell-based
[26] = biological target: Mitogen-activated protein kinase kinase kinase 7 (Homo sapiens) (UniProt O43318); assay: Inhibition of TAK1 (unknown origin) assessed as remaining activity at 1 uM by Kinome scan method relative to control
Chain of Mitogen-activated protein kinase kinase kinase 7 (Homo sapiens) (O43318 whole entry): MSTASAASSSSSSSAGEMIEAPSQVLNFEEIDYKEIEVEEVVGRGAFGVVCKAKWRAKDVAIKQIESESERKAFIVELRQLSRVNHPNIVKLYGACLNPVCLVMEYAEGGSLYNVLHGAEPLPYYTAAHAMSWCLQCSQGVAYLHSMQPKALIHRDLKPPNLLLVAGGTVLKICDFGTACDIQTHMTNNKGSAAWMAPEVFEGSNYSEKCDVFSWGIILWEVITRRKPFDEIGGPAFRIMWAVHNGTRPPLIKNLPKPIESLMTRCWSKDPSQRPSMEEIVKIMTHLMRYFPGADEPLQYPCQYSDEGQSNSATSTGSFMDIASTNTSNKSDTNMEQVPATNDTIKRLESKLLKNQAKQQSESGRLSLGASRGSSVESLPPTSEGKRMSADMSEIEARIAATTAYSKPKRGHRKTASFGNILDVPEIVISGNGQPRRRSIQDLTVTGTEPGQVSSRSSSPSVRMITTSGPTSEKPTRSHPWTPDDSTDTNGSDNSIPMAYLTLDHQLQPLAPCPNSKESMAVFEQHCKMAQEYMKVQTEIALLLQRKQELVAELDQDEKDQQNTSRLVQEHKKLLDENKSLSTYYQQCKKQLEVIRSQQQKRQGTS

[27] = Cytotoxicity against mouse BaF3 cells assessed growth inhibition incubated for 2 to 5 days by CellTiter-Glo assay; type: toxicity, cell-based; conditions: time 2-5 day
[28] = biological target: Serine/threonine-protein kinase 4 (Homo sapiens) (UniProt Q13043); assay: Inhibition of MST1 (unknown origin) assessed as remaining activity at 1 uM by Kinome scan method relative to control
[29] = test system: Phosphatidylinositol 4,5-bisphosphate 3-kinase catalytic subunit alpha isoform (Homo sapiens), P42336 [I800L]; assay: Inhibition of PIK3CA I800L mutant (unknown origin) assessed as remaining activity at 1 uM by Kinome scan method relative to control
[30] = biological target: STE20-like serine/threonine-protein kinase (Homo sapiens) (UniProt Q9H2G2); assay: Inhibition of SLK (unknown origin) assessed as remaining activity at 1 uM by Kinome scan method relative to control

Chain of Serine/threonine-protein kinase Nek2 (Homo sapiens) (P51955 whole entry): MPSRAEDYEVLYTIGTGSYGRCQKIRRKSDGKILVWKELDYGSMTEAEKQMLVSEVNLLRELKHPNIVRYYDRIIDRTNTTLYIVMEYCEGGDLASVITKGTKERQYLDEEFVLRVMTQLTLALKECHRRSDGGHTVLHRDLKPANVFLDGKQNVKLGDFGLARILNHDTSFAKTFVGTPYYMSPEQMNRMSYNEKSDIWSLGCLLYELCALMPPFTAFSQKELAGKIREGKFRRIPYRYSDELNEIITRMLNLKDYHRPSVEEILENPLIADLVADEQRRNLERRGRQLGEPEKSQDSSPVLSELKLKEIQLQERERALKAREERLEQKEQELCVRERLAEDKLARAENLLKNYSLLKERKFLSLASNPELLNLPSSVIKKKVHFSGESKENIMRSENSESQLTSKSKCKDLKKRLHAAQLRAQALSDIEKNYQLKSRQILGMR

Question: Which Activity [1] does the source give for `C=CC(=O)Nc1cc(-n2c(=O)ccc3cnc4ccc(-c5ccc(NS(C)(=O)=O)cc5)cc4c32)ccc1C` here?
Answer: 79%

Question: What about the Activity (RV-1 [2]) of the same molecule?
Answer: Active

Question: And the Activity (RV-1 [3])?
Answer: Active

Question: What about the Activity [4] of the same molecule?
Answer: 4.6%

Question: What about the Activity [5] of the same molecule?
Answer: 83%

Question: And the Activity [6]?
Answer: 63%

Question: What about the Activity [7] of the same molecule?
Answer: 87%

Question: What about the Activity [8] of the same molecule?
Answer: 45%

Question: What about the Activity [9] of the same molecule?
Answer: 91%

Question: What about the Activity [10] of the same molecule?
Answer: 0.28

Question: What about the Activity [11] of the same molecule?
Answer: 96%

Question: And the Activity [12]?
Answer: 83%

Question: What about the Activity [13] of the same molecule?
Answer: 77%

Question: What about the Activity [14] of the same molecule?
Answer: 91%

Question: What about the GI50 (LNCaP C4-2) of the same molecule?
Answer: > 10 µM

Question: And the Activity [15]?
Answer: 72%

Question: And the Activity [16]?
Answer: 41%

Question: What about the Activity [17] of the same molecule?
Answer: 87%

Question: And the Activity [18]?
Answer: 24.3%

Question: What about the Activity [19] of the same molecule?
Answer: 92%

Question: And the Activity [20]?
Answer: 92%

Question: What about the GI50 (BaF3) of the same molecule?
Answer: 4.92 µM

Question: What about the Activity [21] of the same molecule?
Answer: 26%

Question: And the inhibition [22]?
Answer: Active

Question: What about the Activity [23] of the same molecule?
Answer: 70%

Question: And the Activity [24]?
Answer: 83%

Question: What about the inhibition [25] of the same molecule?
Answer: inactive

Question: And the Activity [26]?
Answer: 83%

Question: What about the GI50 [27] of the same molecule?
Answer: > 10 µM

Question: What about the Activity [28] of the same molecule?
Answer: 92%

Question: What about the Activity [29] of the same molecule?
Answer: 46%

Question: And the Activity [30]?
Answer: 59%
